From patent US10858360B2, “Tricyclic gyrase inhibitors” (priority 2011, dated 2020)
In brackets after ≈: the same amount, converted by molar mass. Where two headings read alike, the source gives them in different places.

Key:
S. aureus ATCC 13709 = assay: MIC, S. aureus ATCC 13709 (Alamar Blue broth microdilution); assay type: cell-based; settings: for MIC: Staphylococcus aureus, ATCC13709, S. aureus
E. coli ATCC 25922 = assay: MIC, E. coli ATCC 25922; assay type: cell-based; settings: for MIC: Escherichia coli, ATCC25922, E. coli
[1] = Alamar Blue read after overnight incubation at 35° C.
[2] = S. aureus, Alamar Blue read after overnight incubation at 35° C.
[3] = E. coli, Alamar Blue read after overnight incubation at 35° C.

| SMILES | MIC (S. aureus ATCC 13709; [1]) [µg/mL] | MIC (E. coli ATCC 25922; [1]) [µg/mL] | MIC Sa (S. aureus ATCC 13709; [2]) [µg/mL] | MIC Ec (E. coli ATCC 25922; [3]) [µg/mL] | also measured |
| --- | --- | --- | --- | --- | --- |
| CNc1ccc(C)c2c1[nH]c1nc(Sc3cnc4ccc[n+]([O-])c4c3)nc(N3CC(N)C4(CC4)C3)c12 (stereo not shown) [1.72] | ≤ 0.5 | 1 (≈ 2.01 µM) |  |  |  |
| CNc1cc(F)cc2c1[nH]c1nc(Oc3cnc(N)nc3)nc(N3C[C@H]4CC[C@@H](N)[C@H]4C3)c12 [4.186] | ≤ 0.5 | 2 (≈ 4.45 µM) |  |  |  |
| CNc1cc(F)cc2c1[nH]c1nc(Oc3cnc(CN)nc3)nc(N3CC4CC(N)C4C3)c12 (stereo not shown) [4.394] |  |  | ≤0.5 | ≤0.5 |  |
| CNc1cc(F)cc2c1[nH]c1nc(Oc3cncnc3)nc(N3CC4C(CN)C4C3)c12 (stereo not shown) [4.004] | ≤ 0.5 | 2 (≈ 4.76 µM) |  |  |  |
| CNc1cccc2c1[nH]c1nc(Oc3cncnc3)nc(N3C[C@@H](N)C4(CC4)C3)c12 [3.46] | 2 (≈ 4.97 µM) | 4 (≈ 9.94 µM) |  |  |  |
| CNc1cccc2c1[nH]c1nc(Sc3cncc(S(=O)(=O)NCCO)c3)nc(N3CC4C(N)C4C3)c12 (stereo not shown) [1.42] | 8 (≈ 15.2 µM) | 32 (≈ 60.8 µM) |  |  |  |
| CNc1cc(F)cc2c1[nH]c1nc(Oc3cnc(C)nc3)nc(N3CCCC(C)(N)C3)c12 (stereo not shown) [4.088] |  |  | ≤0.5 | 1 (≈ 2.29 µM) |  |
| CNc1cc(F)cc2c1[nH]c1nc(Oc3cnc(C)nc3)nc(N3CC(C4(N)CC4)C3)c12 [4.080] |  |  | ≤0.5 | 1 (≈ 2.3 µM) |  |
| CNc1cccc2c1[nH]c1nc(Oc3cncnc3)nc(N3C[C@H](N)C4(CC4)C3)c12 [3.47] | ≤ 0.5 | ≤ 0.5 |  |  |  |
| CNc1c(F)ccc2c1[nH]c1nc(Oc3cnc4cccnc4c3)nc(N3CC(N)C4(CC4)C3)c12 (stereo not shown) [6.03] |  |  |  |  | MIC Sa (S. aureus ATCC 13709): ≤0.5 µg/mL; MIC Ec (E. coli ATCC 25922): ≤0.5 µg/mL |
| CNc1cc(F)cc2c1[nH]c1nc(Oc3cnc(C)nc3)nc(N3CCC4(CCNC4)C3)c12 (stereo not shown) [4.126] |  |  | ≤0.5 | 2 (≈ 4.46 µM) |  |
| CNc1cccc2c1[nH]c1nc(Oc3cncnc3)nc(N3CC4C(N)C4C3)c12 (stereo not shown) [3.28] | 1 (≈ 2.57 µM) | 2 (≈ 5.15 µM) |  |  |  |
| CNc1cccc2c1[nH]c1nc(Sc3cnc4cccnc4c3)nc(N3C[C@@H](N)C[C@H]3C)c12 [1.60] | 0.5 (≈ 1.1 µM) | 2 (≈ 4.38 µM) |  |  |  |
| CNc1cc(F)cc2c1[nH]c1nc(Oc3cncc(Cl)c3)nc(N3CC(N)C3)c12 [4.277] | ≤ 0.5 | ≤ 0.5 |  |  |  |
| CNc1ncnc2c1[nH]c1nc(Oc3cnc(C)nc3)nc(N3CC4C(N)C4C3)c12 (stereo not shown) [7.05] | 8 (≈ 19.8 µM) | 64 (≈ 158 µM) |  |  |  |
| COc1cccc2c1[nH]c1nc(Sc3cnc4cccnc4c3)nc(N3CC4C(N)C4C3)c12 (stereo not shown) [1.75] | ≤ 0.5 | > 64 |  |  |  |
| CNc1ncnc2c1[nH]c1nc(Oc3cncc(F)c3)nc(N3CC4C(N)C4C3)c12 (stereo not shown) [7.04] | 8 (≈ 19.6 µM) | 32 (≈ 78.5 µM) |  |  |  |
| CNc1cc(F)cc2c1[nH]c1nc(Oc3cnc(C)nc3)nc(N3C[C@H]4CCC(N)[C@@]4(C)C3)c12 (stereo partly shown) [4.099] |  |  | ≤0.5 | 4 (≈ 8.65 µM) |  |
| CNc1cc(F)cc2c1[nH]c1nc(Oc3cnc(C)nc3)nc(N3CC4(CCCNC4)C3)c12 [4.149] |  |  | ≤0.5 | 2 (≈ 4.46 µM) |  |
| CNc1cc(Cl)cc2c1[nH]c1nc(Oc3cnc(C)nc3)nc(N3CC4CCCNC4C3)c12 (stereo not shown) [6.13] |  |  |  |  | MIC Sa (S. aureus ATCC 13709): ≤0.5 µg/mL; MIC Ec (E. coli ATCC 25922): ≤0.5 µg/mL |
| CNc1cc(F)cc2c1[nH]c1nc(Oc3cnc(S(C)(=O)=O)nc3)nc(N3CC4C(N)CC4(C)C3)c12 (stereo not shown) [4.385] |  |  | ≤0.5 | ≤0.5 |  |
| CNc1cc(F)cc2c1[nH]c1nc(Oc3cnc(C)nc3)nc(N3CC4CONC4C3)c12 (stereo not shown) [4.122] |  |  | ≤0.5 | 1 (≈ 2.29 µM) |  |
| CNc1cc(F)cc2c1[nH]c1nc(Oc3cnc(COC)nc3)nc(N3CC4CC(N)C4C3)c12 (stereo not shown) [4.344] | ≤ 0.5 | 2 (≈ 4.31 µM) |  |  |  |
| CNc1cc(F)cc2c1[nH]c1nc(Oc3cncnc3)nc(N3CC4C[C@@H]3CN4)c12 [4.022] | 8 (≈ 19.7 µM) | 16 (≈ 39.4 µM) |  |  |  |
| CNc1cc(F)cc2c1[nH]c1nc(Oc3cnc(CC(=O)OC)nc3)nc(N3CC4C[C@@H](N)C4C3)c12 (stereo partly shown) [4.367] | ≤ 0.5 | ≤ 0.5 |  |  |  |
| CNc1cc(F)cc2c1[nH]c1nc(Oc3cncnc3)nc(N3CC[C@@]4(C[C@H]4N)C3)c12 [4.014] | ≤ 0.5 | 1 (≈ 2.38 µM) |  |  |  |
